For test [1], the system named is post-junctional α₁-adrenoceptors. The test can be described thus: Post-junctional α₁-adrenoceptor agonism: contraction of rings of rabbit aorta in comparison with noradrenaline. The conditions noted are these: agonist contraction in comparison with noradrenaline. As to the method:
Post-junctional α₁ activity was determined using a method similar to that for post-junctional α₂ activity, but using rings of rabbit aorta. Contractions of this tissue are mediated by post-junctional α₁-adrenoceptors (Docherty et al. 1981), and so the pD2 and intrinsic activity (IA) of α₁-adrenoceptor agonists were calculated from their ability to contract the rings of aorta in comparison with noradrenaline.

Test [2] has as its system post-junctional α₂-adrenoceptors. As to the kind of experiment: Post-junctional α₂-adrenoceptor antagonism: antagonism of noradrenaline contractions in ring segments of rabbit lateral saphenous vein. As to conditions: rabbit lateral saphenous vein rings, 37°C, Krebs medium. As to the method:
To determine post-junctional α₂-adrenoceptor activity, ring segments of rabbit lateral saphenous vein were mounted in organ baths at 37 °C containing Krebs medium. Contractions of this tissue in response to noradrenaline are mediated via post-junctional α₂-adrenoceptors (Alabaster et al, 1985) and therefore the ability of α₂-adrenoceptor antagonists to pharmacologically antagonise such contractions gives a quantitive measure of the activity of compounds for this receptor subtype.

Another test addresses T1, α2-Adrenoceptor (Homo sapiens, UniProt P08913).
T1 construct: Rauwolscine; from tissue; host or cells: human platelet membranes
T1 sequence (P08913 1-465): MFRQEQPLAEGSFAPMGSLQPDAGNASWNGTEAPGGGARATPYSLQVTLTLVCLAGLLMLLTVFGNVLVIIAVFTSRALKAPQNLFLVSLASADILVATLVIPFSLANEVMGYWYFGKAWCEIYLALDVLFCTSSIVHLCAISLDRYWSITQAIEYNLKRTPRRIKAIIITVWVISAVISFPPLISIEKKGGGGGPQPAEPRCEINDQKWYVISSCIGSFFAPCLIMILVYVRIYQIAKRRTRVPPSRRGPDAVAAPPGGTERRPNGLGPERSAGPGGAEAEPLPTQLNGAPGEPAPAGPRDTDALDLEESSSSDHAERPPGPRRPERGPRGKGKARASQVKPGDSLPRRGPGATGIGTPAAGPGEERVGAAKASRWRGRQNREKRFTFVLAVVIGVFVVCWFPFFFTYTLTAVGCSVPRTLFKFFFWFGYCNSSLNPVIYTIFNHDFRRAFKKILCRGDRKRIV
As to the kind of experiment: α2-Adrenoceptor binding: [³H] Rauwolscine displacement on human platelet membranes. The conditions noted are these: [³H] Rauwolscine (0.5-1.0 nM), 30 minutes at 30°C, Cheng Prussoff equation, read-out: Binding Affinity. Ki. Here is the method: Human platelet membranes were incubated with [³H] Rauwolscine (0.5-1.0 nM) for 30 minutes at 30 °C with varying concentrates of the drug (0.1-10,000 nM). The binding assay was stopped by filtering and rinsing on GF/B glass fibre filters.
Binding Affinity (Ki) was calculated using the Cheng Prussoff equation.

Bounds are passed on as bounds.

For orientation: Ki means a dissociation constant, usually derived from enzyme kinetics or from competition with a known ligand.

With `C[C@@H]1c2ccccc2CN1CC1=NCCN1` [Example 1, (R)-2-[(4,5-Dihydro-1H-imidazol-2-yl)methyl]-2,3-dihydro-1-methyl-1H-isoindole], the “Post-synaptic pD₂” value in test [1] is reported as below 4. Also, in test [2], the “Post-synaptic PA₂” value is on record as 7.3. Also, the inhibitory constant (Ki) at α2-Adrenoceptor worked out at 300 pM.

Source of the values: patent EP0413433A1, “Isoindolyl-imidazole-derivatives and pharmaceutical compositions” (Beecham Group p.l.c., priority 1989, dated 1991).
